Results: patent publication US20240132449A1, “HETEROCYCLIC COMPOUNDS AND METHODS OF USE THEREOF” (1cBio, Inc., priority 2022, published 2024)

Legend:
[1] = system: DLD-1 BRCA2(−/−) colorectal adenocarcinoma cells; assay: Cell viability assay (Cell Titer-Glo), DLD-1 BRCA2(−/−); format: cell-based; conditions: Homo sapiens, DLD-1, 168 h; 7 days incubation, 200 cells/well
Experimental: (§1) Compounds of the present disclosure were tested for their effects on the viability of cancer cells. DLD-1 wild-type and DLD-1 BRCA2(−/−) colorectal adenocarcinoma cells, an isogenic pair of cell lines differing in the presence and absence, respectively, of both BRCA2 alleles, were used. The cells were harvested during the logarithmic growth period, counted, and seeded at 50 cells/well for DLD-1 wild-type and 200 cells/well for DLD-1 BRCA2(−/−) in a 384-well cell culture plate. After seeding, cells were incubated at 37° C., 5% CO2 overnight. Cells were treated with serially diluted test compounds at 10 concentrations (e.g., from 1.5 nM-30 μM) for generation of dose response curves, or at a single concentration. The plate was further incubated for another 7 days in a humidified incubator at 37° C. and 5% CO2. Cell viability was assessed by luminescence measurement after addition of Cell Titer-Glo reagent (Promega, Madison, Wis.) according to the manufacturer's instructions. Cell viability IC50 values were calculated using XLFit, equation 201: y=A+((B−A)/(1+((x/C)^D))), where A=bottom, B=top, C=IC50, and D=slope. IC50 values are shown in Table B and are presented in ranges, in which “+++”<300 nM, 300 nM≤“++”<3000 nM, and “+”≥3000 nM. Values for percent inhibition at 10 μM are also shown in Table B and are presented in ranges, in which “***”≥67%, 33%≤“**”<67%, and “*”<33%. Effects of the test compounds on the viability of other cell lines such as MDA-MB-436, MDA-MB-231, SUM149PT, HCC1395, and UWB1.289 are determined in an analogous method.

PARP1 [2] = molecular target: T1, PARP1 (Homo sapiens, UniProt P09874); assay: PARP1 fluorescence polarization binding assay; conditions: binding IC50, GST-tagged PARP1 20 nM, PARPi-FL 3 nM
T1 sequence (P09874 whole entry): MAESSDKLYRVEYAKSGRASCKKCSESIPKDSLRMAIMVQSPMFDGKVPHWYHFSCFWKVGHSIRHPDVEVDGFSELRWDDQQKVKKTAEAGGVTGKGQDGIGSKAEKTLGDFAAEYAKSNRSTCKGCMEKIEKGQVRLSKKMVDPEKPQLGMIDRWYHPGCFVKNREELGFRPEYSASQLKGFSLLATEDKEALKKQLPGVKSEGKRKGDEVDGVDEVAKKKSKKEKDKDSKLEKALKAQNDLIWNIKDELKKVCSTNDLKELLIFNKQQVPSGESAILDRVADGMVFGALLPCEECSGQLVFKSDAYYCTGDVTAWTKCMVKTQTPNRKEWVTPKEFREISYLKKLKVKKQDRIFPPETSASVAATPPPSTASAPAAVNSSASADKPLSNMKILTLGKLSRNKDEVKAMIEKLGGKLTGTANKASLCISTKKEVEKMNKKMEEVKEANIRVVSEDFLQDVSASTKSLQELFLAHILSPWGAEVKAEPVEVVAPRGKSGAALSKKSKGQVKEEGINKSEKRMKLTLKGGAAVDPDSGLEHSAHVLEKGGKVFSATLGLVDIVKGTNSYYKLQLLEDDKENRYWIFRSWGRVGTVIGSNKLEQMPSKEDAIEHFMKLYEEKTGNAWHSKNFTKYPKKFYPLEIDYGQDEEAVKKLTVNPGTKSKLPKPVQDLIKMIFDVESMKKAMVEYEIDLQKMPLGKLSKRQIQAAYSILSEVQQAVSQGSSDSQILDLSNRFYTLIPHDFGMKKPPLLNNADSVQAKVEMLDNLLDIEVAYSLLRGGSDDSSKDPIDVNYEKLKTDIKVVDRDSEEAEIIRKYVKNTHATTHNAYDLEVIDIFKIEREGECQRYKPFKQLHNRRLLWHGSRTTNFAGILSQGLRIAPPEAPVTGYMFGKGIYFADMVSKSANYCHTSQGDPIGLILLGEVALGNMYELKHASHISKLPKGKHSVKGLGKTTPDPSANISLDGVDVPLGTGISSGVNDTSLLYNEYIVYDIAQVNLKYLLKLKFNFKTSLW
Experimental: Compounds of the present disclosure were tested in a PARP1 fluorescence polarization binding assay at Pharmaron (Beijing, P.R.China). In this biochemical assay, binding of test compound to recombinant human PARP1 reduces the amount of binding of a fluorescent probe, and consequently reduces the detected level of fluorescence polarization. Test compound stock solutions were prepared in DMSO and then serially diluted into 10 concentrations by 3-fold dilution in a 384-well plate using a TECAN EVO200. 60 nL of each dilution was transferred to the plate using an Echo550 (Labcyte), and then 10 μL 40 nM GST-tagged PARP1 (BPS Bioscience, Cat #80501), diluted in assay buffer (50 mM Tris pH 8.0, 0.001% Triton X-100, 10 mM MgCl2, 150 mM NaCl), was added to the plate. After a centrifugation at 1000 rpm for 1 min, the assay plate was incubated for 30 min at RT. 10 μL 6 nM PARPi-FL (TOCRIS, Cat #6461), diluted using assay buffer, was then added to the plate. The final concentrations of PARP1 and PARPi-FL were 20 nM and 3 nM, respectively, in a total volume of 20 μL. After a centrifugation at 1000 rpm for 1 min, the assay plate was incubated for 4 h at RT. Samples in each well were read using an Envision instrument (Perkin-Elmer; Ex=480 nm Em=FITC FP-P pol 535 nm & FITC FP-S pol 535 nm). Percent inhibition was calculated from mP values using Inhibition (%)=[1−(mPc−mPL)/(mPH−mPL)]×100%, where mPc, mPL, and mPH are the mP values of test compound, Low controls, and High controls, respectively. Binding IC50 values were calculated using XLFit (equation 201: y=A+((B−A)/(1+((x/C)^D))), where A=bottom, B=top, C=IC50, and D=slope) with a floating top and bottom for curves. Binding IC50 values are shown in Table A and are presented in ranges, in which “+++”<100 nM, 100 nM≤“++”<3000 nM, and “+”≥3000 nM.

recombinant human PARP2 = recombinant human PARP2 (Homo sapiens, UniProt Q9UGN5); assay: PARP2 fluorescence polarization binding assay; conditions: for IC50: binding IC50, GST-tagged PARP2 20 nM, PARPi-FL 3 nM; for inhibition at 10 µM: read-out: PARP2 % inh at 10 μM
Chain of recombinant human PARP2 (Q9UGN5 whole entry): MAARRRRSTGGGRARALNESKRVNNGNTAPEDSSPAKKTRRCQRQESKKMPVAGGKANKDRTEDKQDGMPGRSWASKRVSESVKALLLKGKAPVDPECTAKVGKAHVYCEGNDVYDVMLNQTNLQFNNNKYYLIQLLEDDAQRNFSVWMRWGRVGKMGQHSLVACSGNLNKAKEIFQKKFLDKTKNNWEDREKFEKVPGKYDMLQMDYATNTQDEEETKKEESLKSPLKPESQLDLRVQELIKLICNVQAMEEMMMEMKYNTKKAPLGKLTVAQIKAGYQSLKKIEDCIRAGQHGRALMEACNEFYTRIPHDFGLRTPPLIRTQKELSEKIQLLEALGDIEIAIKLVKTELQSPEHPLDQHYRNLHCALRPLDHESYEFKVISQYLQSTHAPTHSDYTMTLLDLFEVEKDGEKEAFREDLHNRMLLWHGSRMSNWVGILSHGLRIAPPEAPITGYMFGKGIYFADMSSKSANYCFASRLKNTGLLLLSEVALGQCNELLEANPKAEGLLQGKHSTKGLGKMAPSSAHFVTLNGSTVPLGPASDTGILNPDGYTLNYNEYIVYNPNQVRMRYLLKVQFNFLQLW
Experimental: Compounds of the present disclosure were tested in a PARP2 fluorescence polarization binding assay at Pharmaron (Beijing, P.R. China). In this biochemical assay, binding of test compound to recombinant human PARP2 reduces the amount of binding of a fluorescent probe, and consequently reduces the detected level of fluorescence polarization. Test compound stock solutions were prepared in DMSO and then serially diluted into 10 concentrations by 3-fold dilution in a 384-well plate using a TECAN EVO200. Alternatively, a single concentration was prepared. 60 nL of each dilution was transferred to the plate using an Echo550 (Labcyte), and then 10 μL 40 nM GST-tagged PARP2 (BPS Bioscience, Cat #80502), diluted in assay buffer (50 mM Tris pH 8.0, 0.001% Triton X-100, 10 mM MgCl2, 150 mM NaCl), was added to the plate. After a centrifugation at 1000 rpm for 1 min, the assay plate was incubated for 30 min at RT. 10 μL 6 nM PARPi-FL (TOCRIS, Cat #6461), diluted using assay buffer, was then added to the plate. […] After a centrifugation at 1000 rpm for 1 min, the assay plate was incubated for 4 h at RT. Samples in each well were read using an Envision instrument (Perkin-Elmer; Ex=480 nm Em=FITC FP-P pol 535 nm & FITC FP-S pol 535 nm). […] Binding IC50 values were calculated using XLFit (equation 201: […])^D))), where A=bottom, B=top, C=IC50, and D=slope) with a floating top and bottom for curves.

PARP1 [3] = molecular target: T1, PARP1; assay: PARP1 biochemical trapping assay (BPS PARPtrap)
Experimental: Compounds of the present disclosure were tested in a PARP1 biochemical trapping assay at BPS Bioscience (San Diego, CA). PARP1 is known to bind damaged DNA through its DNA-binding domains. Binding to DNA activates PARP1, and in the presence of NAD+, PARP1 ribosylates itself (auto-ribosylation), leading to PARP1 dissociation from the DNA due to the accumulated negative charge of the ribosyl polymer. In the presence of some inhibitors, however, PARP remains bound to the DNA, a phenomenon termed trapping.
The BPS PARPtrap assay kit for PARP1 (BPS Catalog #80584) was used. A series of dilutions of the compounds were prepared with 10% DMSO in water. The final concentration of DMSO was 1% in all reactions. The enzymatic reactions were conducted in duplicates at room temperature in a 96-well plate. The 45 μl reaction mixtures in PARPtrap buffer 1 containing PARP1 fluorescent labelled oligonucleotide duplex, PARP enzyme and the test compound were incubated at room temperature for 10 min. After pre-incubation, the enzymatic reaction was initiated by adding 5 μl of 10×NAD+ solution. The reaction was incubated for 45-60 min at room temperature.
Fluorescence polarization was measured at an excitation of 470 nm and an emission of 518 nm using a Tecan Infinite M1000 microplate reader. The blank value was subtracted from all other values. Fluorescence polarization was analyzed by Tecan Magellan 6 software and wells containing DNA were used as references. The fluorescence polarization data were then evaluated using GraphPad Prism software. The fluorescence polarization in absence of the compound in each data set was defined as 0% activity (FPo), while the fluorescence polarization in the absence of both NAD+ and the compound was defined as 100% activity (FPt). The percent activity in the presence of the compound was calculated according to the equation % activity=[FP−FPo]/[(FPt−FPo)]×100, where FP=the fluorescence polarization in the presence of the compound.
The values of % activity versus a series of compound concentrations were then plotted using non-linear regression analysis of a sigmoidal dose-response curve generated with the equation Y=B+(T−B)/1+10^((LogEC50−X)×Hill Slope), where Y=percent activity, B=minimum percent activity, T=maximum percent activity, X=logarithm of compound and Hill Slope=slope factor or Hill coefficient. The EC50 value was determined by the concentration causing a half-maximal percent activity. EC50 values are shown in Table C and are presented in ranges, in which “+++”<300 nM, 300 nM≤“++”<3000 nM, and “+”≥3000 nM.

[4] = system: DLD-1 wild-type colorectal adenocarcinoma cells; assay: Cell viability assay (Cell Titer-Glo), DLD-1 wild-type; format: cell-based; conditions: Homo sapiens, DLD-1, 168 h, 7 days incubation; for inhibition at 10 µM: read-out: DLD-1 wild-type % inh at 10 μM
Experimental: as §1

CCn1c(=O)[nH]c2cc(CN3CCN(c4ccc(C(=O)NC)nc4C(F)(F)F)CC3)sc2c1=O [Compound 307]
IC50 [1]: 300 to 3000 nM | IC50 (PARP1 [2]): < 100 nM | IC50 (recombinant human PARP2): > 3000 nM | inhibition at 10 µM (recombinant human PARP2): 33 to 67% | EC50 (PARP1 [3]): 300 to 3000 nM | inhibition at 10 µM [4]: < 33% | IC50 ([4]; 50 cells/well): > 3000 nM

CCn1c(=O)[nH]c2cc(CN3CCN(c4ccc(C(=O)NC)nc4F)CC3)sc2c1=O [Compound 319]
IC50 [1]: < 300 nM | IC50 (PARP1 [2]): < 100 nM | inhibition at 10 µM (recombinant human PARP2): 33 to 67% | EC50 (PARP1 [3]): < 300 nM | inhibition at 10 µM [4]: < 33%

CCn1c(=O)[nH]c2cc(CN3CCN(c4ccc(C(=O)NC5COC5)nc4C)CC3)sc2c1=O [Compound 323]
IC50 [1]: > 3000 nM | IC50 (PARP1 [2]): < 100 nM | inhibition at 10 µM (recombinant human PARP2): 33 to 67% | EC50 (PARP1 [3]): > 3000 nM | inhibition at 10 µM [4]: < 33%

CCn1c(=O)[nH]c2cc(CN3CCN(c4ccc(C(=O)NC)nc4C)C(=O)C3)sc2c1=O [Compound 334, 5-[4-({3-ethyl-2,4-dioxo-1H-thieno[3,2-d]pyrimidin-6-yl}methyl)-2-oxopiperazin-1-yl]-N,6-dimethylpyridine-2-carboxamide]
IC50 (PARP1 [2]): 100 to 3000 nM | EC50 (PARP1 [3]): > 3000 nM

CCn1c(=O)[nH]c2cc(CN3CCN4c5ccc(C(=O)NC)nc5OC[C@H]4C3)sc2c1=O [Compound 524, (R)-3-((3-ethyl-2,4-dioxo-1,2,3,4-tetrahydrothieno[3,2-d]pyrimidin-6-yl)methyl)-N-methyl-1,2,3,4,4a,5-hexahydropyrazino[1,2-d]pyrido[2,3-b][1,4]oxazine-8-carboxamide]
IC50 [1]: > 3000 nM | IC50 (PARP1 [2]): < 100 nM | IC50 (recombinant human PARP2): > 3000 nM | inhibition at 10 µM (recombinant human PARP2): 33 to 67% | inhibition at 10 µM [4]: < 33%

CCn1c(=O)[nH]c2cc(CN3CCN(c4ccc(C(=O)NC(CO)CO)nc4C)CC3)sc2c1=O [Compound 527]
IC50 [1]: > 3000 nM | IC50 (PARP1 [2]): < 100 nM | inhibition at 10 µM (recombinant human PARP2): 33 to 67% | EC50 (PARP1 [3]): > 3000 nM | inhibition at 10 µM [4]: < 33%
